# In ChEMBL document CHEMBL3997792, “Identification of the First Selective Activin Receptor-Like Kinase 1 Inhibitor, a Reversible Version of L-783277” (J Med Chem, 2017):
# The source made the active and inactive calls. The calls are words filed in the database; no cut-off is given here.
# Key:
# [1] = molecular target: T1, Vascular endothelial growth factor receptor 3 (Homo sapiens, UniProt P35916); settings: 1 uM
# Description: Inhibition of human FLT4 at 1 uM using poly[Glu:Tyr] (4:1) as substrate in presence of [gamma-33P]-ATP by scintillation counting method relative to control
# [2] = molecular target: T1, Vascular endothelial growth factor receptor 3; experiment: Inhibition of human FLT4 using poly[Glu:Tyr] (4:1) as substrate in presence of [gamma-33P]-ATP by scintillation counting method
# [3] = molecular target: T2, Activin receptor type-1-like (Mus musculus) (UniProt Q61288); experiment: Inhibition of BMP9-stimulated ALK1 in mouse C2C12 cells assessed as reduction in Smad1/5 phosphorylation at 10 uM pretreated for 2 hrs followed by BMP9-stimulation after 30 mins by western blot analysis relative to control; format: cell-based
# T2 sequence (whole entry): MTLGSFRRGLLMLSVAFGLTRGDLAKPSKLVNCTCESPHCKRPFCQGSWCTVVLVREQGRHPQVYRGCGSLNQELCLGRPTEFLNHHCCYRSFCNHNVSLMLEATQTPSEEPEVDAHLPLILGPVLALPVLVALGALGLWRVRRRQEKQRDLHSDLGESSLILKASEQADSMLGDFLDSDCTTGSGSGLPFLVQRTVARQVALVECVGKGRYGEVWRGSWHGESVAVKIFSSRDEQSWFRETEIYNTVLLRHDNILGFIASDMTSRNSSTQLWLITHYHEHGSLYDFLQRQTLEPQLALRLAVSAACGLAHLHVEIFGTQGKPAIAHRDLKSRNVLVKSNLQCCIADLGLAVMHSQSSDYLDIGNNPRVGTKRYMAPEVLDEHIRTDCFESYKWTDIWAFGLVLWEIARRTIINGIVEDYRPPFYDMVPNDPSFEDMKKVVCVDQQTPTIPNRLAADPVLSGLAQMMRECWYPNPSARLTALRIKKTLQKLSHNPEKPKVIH
# TGF-beta receptor type-1 [4] = molecular target: TGF-beta receptor type-1 (Homo sapiens, UniProt P36897); experiment: Inhibition of human ALK5 using casein as substrate in presence of 10 uM ATP by radiometric kinase assay
# [5] = molecular target: T2, Activin receptor type-1-like (Mus musculus); experiment: Inhibition of BMP9-stimulated ALK1 in mouse C2C12 cells assessed as decrease in AKT phosphorylation at S473 at 0.1 to 10 uM pretreated for 2 hrs followed by BMP9-stimulation after 30 mins by western blot analysis; format: cell-based
# Activin receptor type-1B = Activin receptor type-1B (Homo sapiens, UniProt P36896); experiment: Inhibition of human ALK4 using casein as substrate in presence of 10 uM ATP by radiometric kinase assay
# [6] = molecular target: Bone morphogenetic protein receptor type-1A (Homo sapiens, UniProt P36894); experiment: Inhibition of human ALK3 using casein as substrate in presence of 10 uM ATP by radiometric kinase assay
# HUVEC [7] = experiment: Angiogenic activity in HUVEC assessed as increase in vessel areas at 2 to 50 uM by microfluidic chip based 3D angiogenesis assay; format: functional, cell-based; settings: Homo sapiens
# [8] = molecular target: T2, Activin receptor type-1-like (Mus musculus); experiment: Inhibition of BMP9-stimulated ALK1 in mouse C2C12 cells assessed as decrease in ERK1/2 phosphorylation at 0.1 to 10 uM pretreated for 2 hrs followed by BMP9-stimulation after 30 mins by western blot analysis; format: cell-based
# HUVEC [9] = experiment: Angiogenic activity in HUVEC assessed as increase in angiogenic sprouting at 2 to 50 uM by microfluidic chip based 3D angiogenesis assay; format: functional, cell-based; settings: Homo sapiens
# Activin receptor type-1 [10] = molecular target: T3, Activin receptor type-1 (Homo sapiens, UniProt Q04771); experiment: Inhibition of human ALK2 using casein as substrate in presence of 10 uM ATP by radiometric kinase assay
# T3 sequence (Q04771 whole entry): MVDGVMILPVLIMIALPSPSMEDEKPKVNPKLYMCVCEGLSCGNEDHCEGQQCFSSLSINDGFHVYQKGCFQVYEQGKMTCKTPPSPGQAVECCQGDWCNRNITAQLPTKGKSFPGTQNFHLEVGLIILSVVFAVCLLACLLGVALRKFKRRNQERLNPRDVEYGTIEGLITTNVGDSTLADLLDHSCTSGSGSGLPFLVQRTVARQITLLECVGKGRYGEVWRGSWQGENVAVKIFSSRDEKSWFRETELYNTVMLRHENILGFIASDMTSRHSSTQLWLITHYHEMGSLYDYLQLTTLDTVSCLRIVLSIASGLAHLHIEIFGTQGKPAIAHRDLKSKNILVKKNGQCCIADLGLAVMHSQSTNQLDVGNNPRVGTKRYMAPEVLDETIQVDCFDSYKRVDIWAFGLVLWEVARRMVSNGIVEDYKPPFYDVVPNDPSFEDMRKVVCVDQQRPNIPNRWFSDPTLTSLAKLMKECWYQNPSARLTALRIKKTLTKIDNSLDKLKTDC
# [11] = molecular target: Dual specificity mitogen-activated protein kinase kinase 6 (Homo sapiens, UniProt P52564); experiment: Inhibition of human MKK6 using p38a as substrate in presence of [gamma-33P]-ATP by scintillation counting method
# [12] = molecular target: T4, Activin receptor type-1-like (Homo sapiens, UniProt P37023); settings: 1 uM
# T4 sequence (P37023 whole entry): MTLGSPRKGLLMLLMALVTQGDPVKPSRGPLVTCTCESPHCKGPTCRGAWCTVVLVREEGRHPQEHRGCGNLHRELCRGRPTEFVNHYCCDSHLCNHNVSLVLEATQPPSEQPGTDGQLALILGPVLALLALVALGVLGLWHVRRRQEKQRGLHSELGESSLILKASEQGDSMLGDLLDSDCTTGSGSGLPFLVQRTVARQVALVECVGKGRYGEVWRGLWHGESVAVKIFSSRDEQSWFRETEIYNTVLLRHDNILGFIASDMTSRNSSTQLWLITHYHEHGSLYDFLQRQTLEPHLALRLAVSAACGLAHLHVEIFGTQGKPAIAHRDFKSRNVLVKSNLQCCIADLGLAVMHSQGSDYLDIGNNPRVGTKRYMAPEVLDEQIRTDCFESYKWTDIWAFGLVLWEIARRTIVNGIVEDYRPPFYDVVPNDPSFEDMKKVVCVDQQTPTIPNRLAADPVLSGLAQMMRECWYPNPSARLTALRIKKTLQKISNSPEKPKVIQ
# Description: Inhibition of human ALK1 at 1 uM using casein as substrate in presence of [gamma-33P]-ATP by scintillation counting method relative to control
# Activin receptor type-1 [13] = molecular target: T3, Activin receptor type-1; experiment: Inhibition of human ALK2 using casein as substrate in presence of 200 uM ATP by radiometric kinase assay
# [14] = molecular target: T2, Activin receptor type-1-like (Mus musculus); experiment: Inhibition of BMP9-stimulated ALK1 in mouse C2C12 cells assessed as reduction in Smad1/5 phosphorylation at 0.1 to 1 uM pretreated for 2 hrs followed by BMP9-stimulation after 30 mins by western blot analysis; format: cell-based
# [15] = molecular target: Receptor-type tyrosine-protein kinase FLT3 (Homo sapiens) (UniProt P36888); settings: 1 uM
# Sequence of Receptor-type tyrosine-protein kinase FLT3 (Homo sapiens) (P36888 whole entry): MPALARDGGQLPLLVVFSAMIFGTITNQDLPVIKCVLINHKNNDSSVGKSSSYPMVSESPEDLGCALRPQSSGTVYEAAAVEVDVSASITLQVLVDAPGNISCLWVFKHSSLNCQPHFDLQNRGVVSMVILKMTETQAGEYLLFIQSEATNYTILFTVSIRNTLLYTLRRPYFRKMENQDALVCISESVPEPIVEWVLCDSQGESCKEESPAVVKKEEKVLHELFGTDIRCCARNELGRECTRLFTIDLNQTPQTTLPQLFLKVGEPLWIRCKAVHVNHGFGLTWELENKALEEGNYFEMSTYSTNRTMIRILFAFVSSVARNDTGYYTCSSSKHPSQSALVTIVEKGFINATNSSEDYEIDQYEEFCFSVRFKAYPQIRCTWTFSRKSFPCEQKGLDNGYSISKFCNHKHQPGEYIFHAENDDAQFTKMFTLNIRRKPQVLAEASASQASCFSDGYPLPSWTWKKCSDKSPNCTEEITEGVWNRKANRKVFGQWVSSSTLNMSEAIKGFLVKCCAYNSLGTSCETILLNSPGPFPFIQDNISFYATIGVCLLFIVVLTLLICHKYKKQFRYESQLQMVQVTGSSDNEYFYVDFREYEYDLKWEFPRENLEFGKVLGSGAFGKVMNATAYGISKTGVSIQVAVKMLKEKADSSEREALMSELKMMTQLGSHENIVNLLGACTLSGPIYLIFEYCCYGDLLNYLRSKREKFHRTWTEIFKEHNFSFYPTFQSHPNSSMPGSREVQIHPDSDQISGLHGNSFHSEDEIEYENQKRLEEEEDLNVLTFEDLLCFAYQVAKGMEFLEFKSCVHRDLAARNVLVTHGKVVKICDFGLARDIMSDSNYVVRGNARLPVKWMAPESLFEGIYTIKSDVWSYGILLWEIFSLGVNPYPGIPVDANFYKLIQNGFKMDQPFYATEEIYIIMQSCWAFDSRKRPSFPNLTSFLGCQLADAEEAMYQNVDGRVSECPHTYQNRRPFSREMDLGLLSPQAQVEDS
# [16] = molecular target: T4, Activin receptor type-1-like; settings: 1 uM; remark: listed apart in the source
# Description: Inhibition of ALK1 in human A375 cells assessed as decrease in MEK1/2 phosphorylation at 1 uM by western blot analysis
# [17] = molecular target: T4, Activin receptor type-1-like; experiment: Inhibition of human ALK1 using casein as substrate in presence of [gamma-33P]-ATP by scintillation counting method
# [18] = molecular target: T2, Activin receptor type-1-like (Mus musculus); experiment: Inhibition of BMP9-stimulated ALK1 in mouse C2C12 cells assessed as decrease in MEK phosphorylation at 0.1 to 10 uM pretreated for 2 hrs followed by BMP9-stimulation after 30 mins by western blot analysis; format: cell-based
# [19] = molecular target: T5, Vascular endothelial growth factor receptor 2 (Homo sapiens, UniProt P35968); experiment: Inhibition of human KDR using poly[Glu:Tyr] (4:1) as substrate in presence of [gamma-33P]-ATP by scintillation counting method
# T5 sequence (P35968 whole entry): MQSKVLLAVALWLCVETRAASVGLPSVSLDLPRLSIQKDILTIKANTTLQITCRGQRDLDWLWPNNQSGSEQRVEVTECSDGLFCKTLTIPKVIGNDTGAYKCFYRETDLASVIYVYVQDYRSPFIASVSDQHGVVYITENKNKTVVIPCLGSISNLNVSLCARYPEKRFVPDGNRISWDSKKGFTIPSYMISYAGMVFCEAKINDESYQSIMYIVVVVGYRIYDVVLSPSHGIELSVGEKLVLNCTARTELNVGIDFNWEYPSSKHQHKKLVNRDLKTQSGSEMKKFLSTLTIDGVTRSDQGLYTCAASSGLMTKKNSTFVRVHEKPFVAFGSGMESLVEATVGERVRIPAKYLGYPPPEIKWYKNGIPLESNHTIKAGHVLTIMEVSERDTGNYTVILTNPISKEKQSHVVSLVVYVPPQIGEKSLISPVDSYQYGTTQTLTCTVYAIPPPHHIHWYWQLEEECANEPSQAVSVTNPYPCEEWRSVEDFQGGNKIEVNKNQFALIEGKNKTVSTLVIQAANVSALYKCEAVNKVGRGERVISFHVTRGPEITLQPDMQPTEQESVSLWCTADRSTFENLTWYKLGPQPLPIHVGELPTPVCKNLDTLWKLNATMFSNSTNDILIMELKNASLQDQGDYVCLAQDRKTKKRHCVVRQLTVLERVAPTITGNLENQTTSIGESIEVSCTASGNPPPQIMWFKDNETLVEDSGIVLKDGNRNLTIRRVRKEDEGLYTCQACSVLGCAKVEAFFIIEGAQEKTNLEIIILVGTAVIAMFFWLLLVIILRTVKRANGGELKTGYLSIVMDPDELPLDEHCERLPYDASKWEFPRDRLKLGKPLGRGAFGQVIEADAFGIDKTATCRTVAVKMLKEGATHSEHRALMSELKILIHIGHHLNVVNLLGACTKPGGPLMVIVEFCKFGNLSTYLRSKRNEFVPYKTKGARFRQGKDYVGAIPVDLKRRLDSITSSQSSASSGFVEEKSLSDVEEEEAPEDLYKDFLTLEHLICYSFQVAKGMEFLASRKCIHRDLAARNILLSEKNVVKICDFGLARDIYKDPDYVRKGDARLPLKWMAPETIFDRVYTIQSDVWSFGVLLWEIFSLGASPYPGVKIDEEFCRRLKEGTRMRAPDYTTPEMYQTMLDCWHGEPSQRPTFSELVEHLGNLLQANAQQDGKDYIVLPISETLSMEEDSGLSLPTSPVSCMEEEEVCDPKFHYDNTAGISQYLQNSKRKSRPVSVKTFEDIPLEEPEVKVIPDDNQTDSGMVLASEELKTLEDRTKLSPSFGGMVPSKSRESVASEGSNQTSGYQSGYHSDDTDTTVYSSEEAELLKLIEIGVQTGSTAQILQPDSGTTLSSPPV
# TGF-beta receptor type-1 [20] = molecular target: T6, TGF-beta receptor type-1 (Mus musculus, UniProt Q64729); experiment: Inhibition of ALK5 in mouse C2C12 cells assessed as decrease in TGFbeta1-induced Smad1/5 phosphorylation at 10 uM by Western blot method; format: cell-based
# T6 sequence (Q64729 whole entry): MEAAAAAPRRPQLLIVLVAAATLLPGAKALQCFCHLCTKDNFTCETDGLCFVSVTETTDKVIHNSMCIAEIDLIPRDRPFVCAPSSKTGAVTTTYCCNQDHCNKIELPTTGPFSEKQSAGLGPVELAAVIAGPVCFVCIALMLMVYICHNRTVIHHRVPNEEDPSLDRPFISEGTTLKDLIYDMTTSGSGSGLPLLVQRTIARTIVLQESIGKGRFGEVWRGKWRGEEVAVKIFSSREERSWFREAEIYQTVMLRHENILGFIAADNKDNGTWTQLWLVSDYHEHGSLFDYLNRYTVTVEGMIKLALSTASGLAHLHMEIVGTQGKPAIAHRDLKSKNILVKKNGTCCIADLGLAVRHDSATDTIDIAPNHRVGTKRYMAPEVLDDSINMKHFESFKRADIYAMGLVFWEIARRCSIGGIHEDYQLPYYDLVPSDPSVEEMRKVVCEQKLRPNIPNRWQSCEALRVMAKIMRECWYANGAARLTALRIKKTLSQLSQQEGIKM
# HUVEC [21] = experiment: Angiogenic activity in HUVEC assessed as increase in angiogenic sprouting in presence of recombinant human VEGF165 by microfluidic chip based 3D angiogenesis assay; format: functional, cell-based
# [22] = molecular target: T2, Activin receptor type-1-like (Mus musculus); experiment: Inhibition of BMP9-stimulated ALK1 in mouse C2C12 cells assessed as decrease in p38 phosphorylation at 0.1 to 10 uM pretreated for 2 hrs followed by BMP9-stimulation after 30 mins by western blot analysis; format: cell-based
# [23] = molecular target: ALK6 (bone morphogenetic protein receptor type-1B) (Homo sapiens, UniProt O00238); experiment: Inhibition of human ALK6 at 10 uM using casein as substrate in presence of 200 uM ATP by radiometric kinase assay relative to control; settings: probe casein
# [24] = molecular target: T2, Activin receptor type-1-like (Mus musculus); experiment: Inhibition of ALK1 in mouse C2C12 cells assessed as downregulation of BMP9-induced Id1 protein levels at 10 uM pretreated for 2 hrs followed by BMP9-stimulation after 30 mins by western blot analysis; format: cell-based
# [25] = molecular target: Dual specificity mitogen-activated protein kinase kinase 6 (Homo sapiens) (UniProt P52564); experiment: Inhibition of human MKK6 at 1 uM using p38a as substrate in presence of [gamma-33P]-ATP by scintillation counting method relative to control
# Sequence of Dual specificity mitogen-activated protein kinase kinase 6 (Homo sapiens) (P52564 whole entry): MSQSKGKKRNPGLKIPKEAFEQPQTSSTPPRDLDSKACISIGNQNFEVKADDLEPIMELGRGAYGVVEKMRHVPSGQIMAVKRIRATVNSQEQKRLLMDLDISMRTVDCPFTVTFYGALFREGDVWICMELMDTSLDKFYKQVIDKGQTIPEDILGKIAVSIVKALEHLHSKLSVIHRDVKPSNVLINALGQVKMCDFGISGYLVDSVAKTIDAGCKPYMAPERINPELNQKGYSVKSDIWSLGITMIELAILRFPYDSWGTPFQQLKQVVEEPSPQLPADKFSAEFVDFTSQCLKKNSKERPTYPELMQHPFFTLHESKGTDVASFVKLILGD
# [26] = molecular target: Bone morphogenetic protein receptor type-1B (Homo sapiens, UniProt O00238); experiment: Inhibition of human ALK6 using casein as substrate in presence of 10 uM ATP by radiometric kinase assay
# [27] = molecular target: T4, Activin receptor type-1-like; experiment: Inhibition of human ALK1 using casein as substrate in presence of 200 uM ATP by radiometric kinase assay
# HUVEC [28] = experiment: Angiogenic activity in HUVEC assessed as increase in sprout length at 2 to 50 uM by microfluidic chip based 3D angiogenesis assay; format: functional, cell-based; settings: Homo sapiens
# [29] = molecular target: T5, Vascular endothelial growth factor receptor 2; settings: 1 uM
# Description: Inhibition of human KDR at 1 uM using poly[Glu:Tyr] (4:1) as substrate in presence of [gamma-33P]-ATP by scintillation counting method relative to control
# HUVEC [30] = experiment: Angiogenic activity in HUVEC assessed as increase in vascular endothelial tube formation incubated for 6 hrs measured every 3 hrs by matrigel based light microscopic analysis; format: functional, cell-based; settings: Homo sapiens
# [31] = molecular target: ALK3 (bone morphogenetic protein receptor type-1A) (Homo sapiens, UniProt P36894); experiment: Inhibition of human ALK3 at 10 uM using casein as substrate in presence of 200 uM ATP by radiometric kinase assay relative to control; settings: probe casein
# [32] = molecular target: ALK5 (TGF-beta receptor type-1) (Homo sapiens, UniProt P36897); experiment: Inhibition of human ALK5 at 10 uM using casein as substrate in presence of 200 uM ATP by radiometric kinase assay relative to control; settings: human ALK5 kinase (TGF-beta receptor type-1), probe casein
# [33] = molecular target: T4, Activin receptor type-1-like; experiment: Inhibition of human ALK1 using casein as substrate in presence of 10 uM ATP by radiometric kinase assay
# [34] = molecular target: ALK4 (activin receptor type-1B) (Homo sapiens, UniProt P36896); experiment: Inhibition of human ALK4 at 10 uM using casein as substrate in presence of 200 uM ATP by radiometric kinase assay relative to control; settings: human ALK4 kinase (activin receptor type-1B), probe casein
# [35] = molecular target: T2, Activin receptor type-1-like (Mus musculus); experiment: Inhibition of ALK1 in mouse C2C12 cells assessed as downregulation of BMP9-induced Id1 mRNA levels at 10 uM pretreated for 2 hrs followed by BMP9-stimulation after 30 mins by RT-PCR analysis; format: cell-based
# MDA-MB-231 = experiment: Antiproliferative activity against human MDA-MB-231 cells up to 100 uM after 72 hrs by CellTiter 96 non-radioactive cell proliferation assay; format: cell-based; settings: mda-mb-231, 72 h
# TGF-beta receptor type-1 [36] = molecular target: T6, TGF-beta receptor type-1; experiment: Inhibition of ALK5 in mouse C2C12 cells assessed as decrease in TGFbeta1-induced Smad2/3 phosphorylation at 0.1 to 10 uM by Western blot method; format: cell-based
# T1 sequence (P35916 whole entry): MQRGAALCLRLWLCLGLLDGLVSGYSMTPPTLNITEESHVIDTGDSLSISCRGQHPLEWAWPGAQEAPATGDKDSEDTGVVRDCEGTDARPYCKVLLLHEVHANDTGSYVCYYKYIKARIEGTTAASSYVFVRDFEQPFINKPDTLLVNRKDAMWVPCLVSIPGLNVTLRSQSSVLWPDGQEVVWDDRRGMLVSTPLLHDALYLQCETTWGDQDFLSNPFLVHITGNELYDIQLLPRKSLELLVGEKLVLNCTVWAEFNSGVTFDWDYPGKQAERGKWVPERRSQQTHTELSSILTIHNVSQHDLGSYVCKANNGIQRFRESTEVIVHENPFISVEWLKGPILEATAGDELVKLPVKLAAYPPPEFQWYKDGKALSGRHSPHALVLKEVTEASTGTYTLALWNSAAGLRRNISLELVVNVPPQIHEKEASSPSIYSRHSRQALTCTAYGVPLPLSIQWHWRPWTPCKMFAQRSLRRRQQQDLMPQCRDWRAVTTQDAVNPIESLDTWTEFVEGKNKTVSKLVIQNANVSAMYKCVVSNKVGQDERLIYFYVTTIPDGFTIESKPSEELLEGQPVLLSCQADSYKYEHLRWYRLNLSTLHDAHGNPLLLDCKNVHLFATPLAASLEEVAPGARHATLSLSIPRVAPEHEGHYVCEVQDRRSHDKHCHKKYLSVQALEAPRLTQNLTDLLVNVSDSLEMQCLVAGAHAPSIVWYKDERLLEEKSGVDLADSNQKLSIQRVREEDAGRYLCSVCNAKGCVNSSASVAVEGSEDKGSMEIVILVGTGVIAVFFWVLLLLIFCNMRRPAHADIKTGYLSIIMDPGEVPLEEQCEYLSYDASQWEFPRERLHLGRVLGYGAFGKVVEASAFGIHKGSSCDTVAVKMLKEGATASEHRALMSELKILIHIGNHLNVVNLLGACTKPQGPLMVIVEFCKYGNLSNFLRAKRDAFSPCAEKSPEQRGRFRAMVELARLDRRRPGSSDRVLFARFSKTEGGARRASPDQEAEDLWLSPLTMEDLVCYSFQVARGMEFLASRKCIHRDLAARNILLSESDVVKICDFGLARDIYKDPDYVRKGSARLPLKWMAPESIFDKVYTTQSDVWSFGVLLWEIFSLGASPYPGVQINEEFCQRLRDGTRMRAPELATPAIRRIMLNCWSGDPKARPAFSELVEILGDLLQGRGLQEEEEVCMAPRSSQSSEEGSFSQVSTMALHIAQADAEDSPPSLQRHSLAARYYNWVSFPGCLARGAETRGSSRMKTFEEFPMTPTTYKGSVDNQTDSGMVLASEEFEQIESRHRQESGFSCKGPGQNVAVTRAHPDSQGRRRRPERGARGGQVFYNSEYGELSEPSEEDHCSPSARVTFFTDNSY
compound,measurement,setting,value
COc1cc(O)c2c(c1)CCC[C@H](O)[C@H](O)C(=O)CCC[C@H](C)OC2=O,inhibition,[1],> 80%
same,IC50,[2],0.114 µM
same,inhibition,[3],100%
same,IC50,TGF-beta receptor type-1 [4],7.21 µM
same,inhibition,[5],inactive
same,IC50,Activin receptor type-1B,2.76 µM
same,IC50,[6],6.27 µM
same,Activity,HUVEC [7],Active
same,inhibition,[8],inactive
same,Activity,HUVEC [9],Active
same,IC50,Activin receptor type-1 [10],0.217 µM
same,IC50,[11],> 10 µM
same,inhibition,[12],> 80%
same,IC50,Activin receptor type-1 [13],3.35 µM
same,inhibition,[14],Active
same,inhibition,[15],> 80%
same,inhibition,[16],Active
same,IC50,[17],0.062 µM
same,inhibition,[18],inactive
same,IC50,[19],0.163 µM
same,inhibition (INH),TGF-beta receptor type-1 [20],Active
same,Activity,HUVEC [21],Dose-dependent effect
same,inhibition,[22],inactive
same,inhibition at 10 µM,[23],< 40%
same,inhibition,[24],Active
same,inhibition,[25],89%
same,IC50,[26],0.727 µM
same,IC50,[27],1.21 µM
same,Activity,HUVEC [28],Active
same,inhibition,[29],> 80%
same,Activity,HUVEC [30],Dose-dependent effect
same,inhibition at 10 µM,[31],< 40%
same,inhibition at 10 µM,[32],< 40%
same,IC50,[33],0.062 µM
same,inhibition at 10 µM,[34],< 40%
same,inhibition,[35],Active
same,Activity,MDA-MB-231,Non-Toxic
same,inhibition (INH),TGF-beta receptor type-1 [36],Not Active
